Test results reported in patent US20240287089A1, “Preparation and Uses of 7-Azaindenoisoquinolines” (Purdue Research Foundation, priority 0001, published 2024).
Like-named read-outs stand apart in the source and are kept apart here.

Legend:
HL-60 = assay: MTS GI50, Myc-dependent panel; format: cell-based; conditions: HL-60, 72 h, read-out: GI50
Method: (§1) Cytotoxicity Results in Myc-dependent Cancer Cell Lines.
(§2) MTS Cell Viability IC50 Assay. Drug solutions for MTS IC50 assays of suspension cell lines were made from DMSO stocks by serial-dilutions in 1×PBS (10010-031, Gibco). To set up treatments, drug solutions were plated in triplicates to 96-well tissue culture plates, to which cell-containing media was added to a total volume of 100 μL/well. 100%-viability controls were untreated cells. 2000 cells/well were plated for all suspension cell lines except 3000 cells/well for KMS-27 and 10000 cells/well for CHLA-32. Blanks were cell-free media. Drug treatments were maintained for 72 hr at 37° C. with 5% CO2. To quantify cells, CellTiter 96 AQueous MTS Reagent Powder (G1111, Promega) was dissolved and mixed with phenazine methosulfate (PMS, Sigma-Aldrich P9625) according to manufacturer's instructions. MTS/PMS mix ([…]) was added to treatment wells, 100%-viability control wells, and blank wells. Colors were developed at 37° C. with 5% CO2 for 4 h and absorbance at 490 nm was measured by BioTek Synergy 4 system. To obtain %-viability, A490 values were corrected by blank subtraction, normalized to 100%-viability control, and averaged. Average %-viabilities were plotted against drug dosages to obtain dose-response curves. […] For adherent cell lines, the MTS IC50 assays were conducted the same way as for suspension cell lines except for cell plating and drug treatment. For cell plating, 50 μL of 2000 cells were plated in triplicates to a 96-well tissue culture plate. Cells were allowed sufficient time to become adherent. Serial-diluted drug solutions were made the same way as in the MTS IC50 assays. To set up treatments, drug solutions were mixed with media to two-fold of the final concentrations, and 50 μL of such drug-media mix was then added to 50 μL of plated cells.

K-562 = assay: MTS GI50, Myc-dependent panel; format: cell-based; conditions: K-562, 72 h, read-out: GI50
Method: as §1, §2

RPMI-8226 = assay: MTS GI50, Myc-dependent panel; format: cell-based; conditions: RPMI-8226, 72 h, read-out: GI50
Method: as §1, §2

L-363 = assay: MTS GI50, Myc-dependent panel; format: cell-based; conditions: L-363, 72 h, read-out: GI50
Method: as §1, §2

CCRF-CRM = assay: MTS GI50, Myc-dependent panel; format: cell-based; conditions: CCRF-CRM, 72 h; read-out: GI50
Method: as §1, §2

AMO-1 = assay: MTS GI50, Myc-dependent panel; format: cell-based; conditions: AMO-1, 72 h, read-out: GI50
Method: as §1, §2

TC-71 = assay: MTS GI50, Myc-dependent panel; format: cell-based; conditions: TC-71, 72 h; read-out: GI50
Method: as §1, §2

RD-ES = assay: MTS GI50, Myc-dependent panel; format: cell-based; conditions: 72 h, read-out: GI50
Method: as §1, §2

CHLA-99 = assay: MTS GI50, Myc-dependent panel; format: cell-based; conditions: CHLA-99, 72 h; read-out: GI50
Method: as §1, §2

Kasumi-1 = assay: MTS GI50, Myc-dependent panel; format: cell-based; conditions: Kasumi-1, 72 h, read-out: GI50
Method: as §1, §2

SK-N-MC = assay: MTS GI50, Myc-dependent panel; format: cell-based; conditions: 72 h, read-out: GI50
Method: as §1, §2

MDA-MB-231 = assay: MTS GI50, Myc-dependent panel; format: cell-based; conditions: MDA-MB-231, 72 h, read-out: GI50
Method: as §1, §2

CHLA-32 = assay: MTS GI50, Myc-dependent panel; format: cell-based; conditions: CHLA-32, 72 h; read-out: GI50
Method: as §1, §2

MCF-7 = assay: MTS GI50, Myc-dependent panel; format: cell-based; conditions: MCF-7, 72 h, read-out: GI50
Method: as §1, §2

ARD = assay: MTS GI50, Myc-dependent panel; format: cell-based; conditions: ARD, 72 h; read-out: GI50
Method: as §1, §2

TC-106 = assay: MTS GI50, Myc-dependent panel; format: cell-based; conditions: TC-106, 72 h; read-out: GI50
Method: as §1, §2

TC-32 = assay: MTS GI50, Myc-dependent panel; format: cell-based; conditions: TC-32, 72 h, read-out: GI50
Method: as §1, §2

THP-1 = assay: MTS GI50, Myc-dependent panel; format: cell-based; conditions: THP-1, 72 h, read-out: GI50
Method: as §1, §2

MOLT-4 = assay: MTS GI50, Myc-dependent panel; format: cell-based; conditions: MOLT-4, 72 h, read-out: GI50
Method: as §1, §2

RS4;11 = assay: MTS GI50, Myc-dependent panel; format: cell-based; conditions: RS4;11, 72 h, read-out: GI50
Method: as §1, §2

KMS-27 = assay: MTS GI50, Myc-dependent panel; format: cell-based; conditions: KMS-27, 72 h; read-out: GI50
Method: as §1, §2

RAJI lymphoma cells = assay: MTS cell viability IC50 assay; format: cell-based; conditions: 72 h
Method: Cytotoxicity Results in Raji Non-Hodgkin's Lymphoma Cells. MTS experiments were then conducted to test the anti-proliferative effects of 7-aza-8,9-methylenedioxyindenoisoquinolines in Raji cells. Cells were incubated at 2-2000 nM of each drug for 72 h, and cell viabilities were quantified using the MTS assay. […] This potency trend generally correlated with the western blot results, in which G106 and G108 […] show weaker Myc downregulation.
as §2

[1] = molecular target: 3′-TAMRA-labeled MycG4 DNA; assay: Fluorescence binding assay; conditions: 20° C., 100 mM K+ buffer, pH 7.0; read-out: Apparent Binding Affinity Kd, app
Method: Binding Affinity to the Myc G-Quadruplex. Binding affinity of eight 7-aza-8,9-methylenedioxyindenoisoquinolines to MycG4 was determined using a fluorescence binding assay with a 3′-TAMRA-labeled MycG4 DNA. Monitoring TAMRA emission upon drug titration afforded binding isotherms, from which apparent binding affinities, Kd,app, were derived.
Fluorescence-Based Binding Assays. Fluorescence-based binding assays were performed on a Jasco FP-8300 spectrofluorometer equipped with a temperature controller at 20° C. in a quartz cuvette with a 10 mm path length. 3′-TAMRA-labeled MycG4 DNA (Sigma-Aldrich) was diluted to 20 nM using a 75 mM KCl/25 mM potassium phosphate buffer, pH 7.0. […] Fluorescence intensity at 580 nm, the maximum for the free DNA, was plotted against drug:DNA ratio. The apparent binding dissociation constant, Kd,app, was derived for the binding of each compound. Using OriginPro software (OriginLab Corp., United States) the change in fluorescence intensity was fitted to a one-site binding equation,
where B0 is the initial fluorescence intensity, B is maximum change in fluorescence intensity, R is DNA concentration, and L is drug:DNA ratio.

SMILES	GI50 (HL-60; Homo sapiens)	GI50 (K-562; Homo sapiens, K562)	GI50 (RPMI-8226; Homo sapiens)	GI50 (L-363; Homo sapiens)	GI50 (CCRF-CRM)	GI50 (AMO-1; Homo sapiens, AMO1)	GI50 (TC-71)	GI50 (RD-ES)	GI50 (CHLA-99)	GI50 (Kasumi-1; Homo sapiens)	GI50 (SK-N-MC; Homo sapiens)	GI50 (MDA-MB-231; Homo sapiens)	GI50 (CHLA-32)	GI50 (MCF-7; Homo sapiens, MCF7)	GI50 (ARD)	GI50 (TC-106)	GI50 (TC-32; Homo sapiens)	GI50 (THP-1; Homo sapiens)	GI50 (MOLT-4; Homo sapiens)	GI50 (KMS-27)	also measured
COc1cc2c3c(n(CCCN4CCOCC4)c(=O)c2cc1OC)-c1nc2c(cc1C3=O)OCO2 [G101, 2,3-Dimethoxy-6-(3-morpholinopropyl)-5H-[1,3]dioxolo[4″,5″:5′,6′]pyrido[3′,2′:4,5]cyclopenta[1,2-c]isoquinoline-5,12(6H)-dione]	> 2000 nM	1010 nM	905 nM	342 nM	248 nM	1220 nM	756 nM	608 nM	526 nM	> 2000 nM	698 nM	> 2000 nM	708 nM	> 2000 nM	190 nM	848 nM	569 nM	1320 nM	113 nM	530 nM	GI50 (RS4;11; Homo sapiens): 283 nM; IC50 (RAJI lymphoma cells; Homo sapiens, Raji): 340 nM; Kd [1]: 249 nM
COc1cc2c3c(n(CCCn4ccnc4)c(=O)c2cc1OC)-c1nc2c(cc1C3=O)OCO2 [G102, 6-(3-(1H-Imidazol-1-yl)propyl)-2,3-dimethoxy-5H-[1,3]dioxolo[4″,5″:5′,6′]pyrido[3′,2′:4,5]cyclopenta[1,2-c]isoquinoline-5,12(6H)-dione]	> 2000 nM	580 nM	481 nM	232 nM	117 nM	804 nM	199 nM	180 nM	265 nM	> 2000 nM	170 nM	1050 nM	280 nM	> 2000 nM	111 nM	229 nM	127 nM	1020 nM	43 nM	238 nM	GI50 (RS4;11; Homo sapiens): 120 nM; IC50 (RAJI lymphoma cells; Homo sapiens, Raji): 153 nM; Kd [1]: 147 nM
COc1cc2c3c(n(CCCNC(C)C)c(=O)c2cc1OC)-c1nc2c(cc1C3=O)OCO2 [G103, 6-(3-(Isopropylamino)propyl)-2,3-dimethoxy-5H-[1,3]dioxolo [4″,5″:5′,6′]pyrido[3′,2′:4,5]cyclopenta[1,2-c]isoquinoline-5,12(6H)-dione]	328 nM	182 nM	234 nM	126 nM	57 nM	317 nM	153 nM	31 nM	89 nM	432 nM	150 nM	644 nM	55 nM	> 2000 nM	70 nM	202 nM	55 nM	602 nM	19 nM	206 nM	GI50 (RS4;11; Homo sapiens): 53 nM; IC50 (RAJI lymphoma cells; Homo sapiens, Raji): 167 nM
CCNCCCn1c2c(c3cc(OC)c(OC)cc3c1=O)C(=O)c1cc3c(nc1-2)OCO3 [G104, 6-(3-(Ethylamino)propyl)-2,3-dimethoxy-5H-[1,3]dioxolo[4″,5″:5′,6′]pyrido [3′,2′:4,5]cyclopenta[1,2-c]isoquinoline-5,12(6H)-dione]	270 nM	158 nM	190 nM	96 nM	49 nM	184 nM	122 nM	20 nM	58 nM	266 nM	137 nM	476 nM	33 nM	> 2000 nM	55 nM	157 nM	53 nM	358 nM	13 nM	141 nM	GI50 (RS4;11; Homo sapiens): 38 nM; IC50 (RAJI lymphoma cells; Homo sapiens, Raji): 131 nM; Kd [1]: 55 nM
COc1cc2c3c(n(CCCNCCO)c(=O)c2cc1OC)-c1nc2c(cc1C3=O)OCO2 [G105, 6-(3-((2-Hydroxyethyl)amino)propyl)-2,3-dimethoxy-5H-[1,3]dioxolo[4″,5″:5′,6′]pyrido[3′,2′:4,5]cyclopenta[1,2-c]isoquinoline-5,12(6H)-dione]	290 nM	196 nM	559 nM	154 nM	57 nM	461 nM	197 nM	22 nM	31 nM	530 nM	173 nM	806 nM	96 nM	1390 nM	121 nM	202 nM	104 nM	300 nM	12 nM	141 nM	GI50 (RS4;11; Homo sapiens): 34 nM; IC50 (RAJI lymphoma cells; Homo sapiens, Raji): 147 nM; Kd [1]: 97 nM
COc1cc2c3c(n(CCCN4CCOCC4)c(=O)c2cc1OC)-c1cc2c(cc1C3=O)OCO2 [LMP400, indotecan]	1390 nM	864 nM	989 nM	214 nM	316 nM	738 nM	1060 nM	472 nM	773 nM	> 2000 nM	1050 nM	1900 nM	812 nM	> 2000 nM	126 nM	605 nM	574 nM	915 nM	239 nM	543 nM	GI50 (RS4;11; Homo sapiens): 336 nM; IC50 (RAJI lymphoma cells; Homo sapiens, Raji): 190 nM; Kd [1]: 301 nM
COc1cc2c3c(n(CCCNCCO)c(=O)c2cc1OC)-c1cc2c(cc1C3=O)OCO2 [LMP744]	–	–	–	–	57 nM	–	244 nM	24 nM	77 nM	–	–	–	156 nM	–	77 nM	277 nM	–	–	–	190 nM	GI50 (HL-60): 354 nM; GI50 (K-562): 219 nM; GI50 (RPMI-8226): 620 nM; GI50 (L-363): 119 nM; GI50 (AMO-1): 285 nM; GI50 (Kasumi-1): 721 nM; GI50 (SK-N-MC): 237 nM; GI50 (MDA-MB-231): 968 nM; GI50 (MCF-7): > 2000 nM; GI50 (TC-32): 121 nM; GI50 (THP-1): 305 nM; GI50 (MOLT-4): 4 nM; GI50 (RS4;11): 30 nM; IC50 (RAJI lymphoma cells; RAJI): 120 nM; Kd [1]: 11 nM
